From patent US10231954B2, “Neurodegenerative therapies” (LYTIX BIOPHARMA AS, priority 2014, dated 2019)
Like-named read-outs stand apart in the source and are kept apart here.

What was measured:
Format in all cases: biochemical
[1] = target: JNK3 (Homo sapiens, UniProt P53779); assay: Kinase profiling JNK3; conditions: for remaining activity at 100 µM: read-out: residual kinase activity, JNK3
From the text: (§1) Any value less that 25 is considered to be highly significant inhibition.

[2] = target: T1, p38g MAPK (Homo sapiens, UniProt P53778); assay: Kinase profiling p38g MAPK; conditions: for remaining activity at 100 µM: read-out: residual kinase activity, p38g MAPK
T1 sequence (P53778 1-367): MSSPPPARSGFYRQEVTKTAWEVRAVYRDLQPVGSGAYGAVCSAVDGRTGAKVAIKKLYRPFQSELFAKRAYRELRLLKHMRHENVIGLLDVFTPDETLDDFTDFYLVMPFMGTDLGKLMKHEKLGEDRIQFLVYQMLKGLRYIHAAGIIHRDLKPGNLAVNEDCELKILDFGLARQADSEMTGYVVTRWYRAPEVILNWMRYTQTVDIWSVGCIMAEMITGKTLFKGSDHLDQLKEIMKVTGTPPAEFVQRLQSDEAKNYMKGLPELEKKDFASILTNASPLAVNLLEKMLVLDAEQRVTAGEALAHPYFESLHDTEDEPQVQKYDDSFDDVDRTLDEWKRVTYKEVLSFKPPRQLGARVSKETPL
From the text: as §1

[3] = target: T2, p38d MAPK (Homo sapiens, UniProt O15264); assay: Kinase profiling p38d MAPK; conditions: for remaining activity at 100 µM: read-out: residual kinase activity, p38d MAPK
T2 sequence (O15264 1-365): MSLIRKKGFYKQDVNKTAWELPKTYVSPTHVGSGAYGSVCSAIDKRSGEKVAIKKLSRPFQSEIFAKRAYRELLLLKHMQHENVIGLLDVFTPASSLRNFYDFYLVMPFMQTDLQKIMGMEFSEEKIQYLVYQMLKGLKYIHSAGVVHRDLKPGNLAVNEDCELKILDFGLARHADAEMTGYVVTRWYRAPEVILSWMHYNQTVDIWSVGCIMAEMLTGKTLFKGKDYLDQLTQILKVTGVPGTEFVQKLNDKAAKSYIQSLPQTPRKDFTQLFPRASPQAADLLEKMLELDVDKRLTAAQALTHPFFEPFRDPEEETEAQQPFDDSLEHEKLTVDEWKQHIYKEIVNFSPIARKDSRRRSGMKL
From the text: as §1

[4] = target: S6K1 (Homo sapiens, UniProt P23443); assay: Kinase profiling S6K1; conditions: for remaining activity at 100 µM: read-out: residual kinase activity, S6K1
From the text: as §1

[5] = target: SmMLCK (Homo sapiens, UniProt Q15746); assay: Kinase profiling SmMLCK; conditions: for remaining activity at 100 µM: read-out: residual kinase activity, SmMLCK
[6] = target: HIPK2 (Homo sapiens, UniProt Q9H2X6); assay: Kinase profiling HIPK2; conditions: for remaining activity at 100 µM: read-out: residual kinase activity, HIPK2
From the text: as §1

[7] = target: T3, IRAK4 (Homo sapiens, UniProt Q9NWZ3); assay: Kinase profiling IRAK4; conditions: for remaining activity at 100 µM: read-out: residual kinase activity, IRAK4
T3 sequence (Q9NWZ3 1-460): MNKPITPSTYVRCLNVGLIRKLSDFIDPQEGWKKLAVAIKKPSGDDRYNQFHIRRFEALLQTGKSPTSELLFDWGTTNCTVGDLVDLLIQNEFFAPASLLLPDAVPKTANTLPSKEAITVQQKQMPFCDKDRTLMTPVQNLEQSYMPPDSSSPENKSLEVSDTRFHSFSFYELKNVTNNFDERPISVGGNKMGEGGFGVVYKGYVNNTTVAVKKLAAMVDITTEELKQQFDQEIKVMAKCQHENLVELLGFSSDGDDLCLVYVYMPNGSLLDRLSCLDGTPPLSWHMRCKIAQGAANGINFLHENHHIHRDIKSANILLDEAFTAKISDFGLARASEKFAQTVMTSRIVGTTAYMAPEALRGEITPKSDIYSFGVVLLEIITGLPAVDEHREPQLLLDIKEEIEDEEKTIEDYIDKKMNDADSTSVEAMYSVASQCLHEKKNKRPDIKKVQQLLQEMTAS
From the text: as §1

[8] = target: T4, TTK (Homo sapiens, UniProt P33981); assay: Kinase profiling TTK; conditions: for remaining activity at 100 µM: read-out: residual kinase activity, TTK
T4 sequence (P33981 1-857): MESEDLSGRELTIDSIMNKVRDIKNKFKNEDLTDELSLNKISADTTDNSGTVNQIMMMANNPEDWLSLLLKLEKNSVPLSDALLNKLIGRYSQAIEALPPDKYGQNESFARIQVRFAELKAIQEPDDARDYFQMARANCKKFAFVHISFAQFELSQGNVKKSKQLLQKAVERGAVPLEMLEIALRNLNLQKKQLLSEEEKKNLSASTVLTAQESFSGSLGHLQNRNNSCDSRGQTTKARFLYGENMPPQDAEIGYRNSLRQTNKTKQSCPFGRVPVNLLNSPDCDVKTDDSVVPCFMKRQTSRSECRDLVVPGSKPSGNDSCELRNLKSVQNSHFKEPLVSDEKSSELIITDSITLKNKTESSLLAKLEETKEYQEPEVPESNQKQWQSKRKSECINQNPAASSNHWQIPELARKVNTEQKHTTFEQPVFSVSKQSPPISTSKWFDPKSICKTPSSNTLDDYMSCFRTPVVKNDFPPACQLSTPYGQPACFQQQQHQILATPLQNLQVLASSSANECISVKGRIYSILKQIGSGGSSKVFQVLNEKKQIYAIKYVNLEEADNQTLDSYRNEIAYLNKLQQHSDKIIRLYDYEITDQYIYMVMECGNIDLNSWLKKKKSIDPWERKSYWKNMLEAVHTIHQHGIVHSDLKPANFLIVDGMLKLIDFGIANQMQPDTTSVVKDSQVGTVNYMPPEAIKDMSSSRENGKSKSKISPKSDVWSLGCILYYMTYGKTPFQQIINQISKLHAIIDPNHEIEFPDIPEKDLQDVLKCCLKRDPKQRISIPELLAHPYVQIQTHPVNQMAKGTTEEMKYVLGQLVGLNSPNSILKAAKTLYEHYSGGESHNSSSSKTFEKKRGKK
From the text: as §1

[9] = target: Src (Homo sapiens, UniProt P12931); assay: Kinase profiling Src; conditions: for remaining activity at 100 µM: read-out: residual kinase activity, Src
From the text: as §1

[10] = target: TrkA (Homo sapiens, UniProt P04629); assay: Kinase profiling TrkA; conditions: for remaining activity at 100 µM: read-out: residual kinase activity, TrkA
From the text: as §1

[11] = system: VEG-FR; assay: Kinase profiling VEG-FR
From the text: as §1

[12] = 100 micromolar inhibitor, 100 = no change
[13] = 100 micromolar inhibitor concentration, 100 is no change

HIPK2, sequence (Q9H2X6 whole entry, species assumed): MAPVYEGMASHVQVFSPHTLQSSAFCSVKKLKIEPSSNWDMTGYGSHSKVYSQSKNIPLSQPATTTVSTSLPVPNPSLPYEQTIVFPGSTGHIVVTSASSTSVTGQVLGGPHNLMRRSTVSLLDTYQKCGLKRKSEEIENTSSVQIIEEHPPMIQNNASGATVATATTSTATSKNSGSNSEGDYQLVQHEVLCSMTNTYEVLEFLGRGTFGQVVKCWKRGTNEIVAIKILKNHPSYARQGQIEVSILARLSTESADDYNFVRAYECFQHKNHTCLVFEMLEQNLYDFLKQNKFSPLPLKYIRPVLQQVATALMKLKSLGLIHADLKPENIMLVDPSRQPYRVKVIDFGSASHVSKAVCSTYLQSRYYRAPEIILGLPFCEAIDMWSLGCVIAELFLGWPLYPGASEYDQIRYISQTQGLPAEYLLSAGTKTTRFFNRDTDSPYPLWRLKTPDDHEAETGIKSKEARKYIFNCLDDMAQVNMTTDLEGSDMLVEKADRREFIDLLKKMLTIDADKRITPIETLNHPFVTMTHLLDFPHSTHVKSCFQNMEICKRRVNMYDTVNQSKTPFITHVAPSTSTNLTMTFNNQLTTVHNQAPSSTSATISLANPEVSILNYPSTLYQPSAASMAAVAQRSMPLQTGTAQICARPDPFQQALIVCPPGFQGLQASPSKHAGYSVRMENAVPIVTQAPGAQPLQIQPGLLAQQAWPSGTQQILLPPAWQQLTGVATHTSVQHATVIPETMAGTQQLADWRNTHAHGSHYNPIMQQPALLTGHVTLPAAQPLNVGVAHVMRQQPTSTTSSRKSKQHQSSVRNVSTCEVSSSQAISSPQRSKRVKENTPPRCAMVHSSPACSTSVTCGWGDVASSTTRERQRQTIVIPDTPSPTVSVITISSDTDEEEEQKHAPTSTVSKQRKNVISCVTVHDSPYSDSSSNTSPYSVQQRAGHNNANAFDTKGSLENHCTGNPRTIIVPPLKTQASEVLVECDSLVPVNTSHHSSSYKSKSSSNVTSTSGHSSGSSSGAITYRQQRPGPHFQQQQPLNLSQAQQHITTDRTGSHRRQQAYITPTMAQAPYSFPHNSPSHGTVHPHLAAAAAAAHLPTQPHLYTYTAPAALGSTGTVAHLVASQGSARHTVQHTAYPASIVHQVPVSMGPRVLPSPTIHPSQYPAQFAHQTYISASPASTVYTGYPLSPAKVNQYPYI
SmMLCK, sequence (Q15746 923-1914): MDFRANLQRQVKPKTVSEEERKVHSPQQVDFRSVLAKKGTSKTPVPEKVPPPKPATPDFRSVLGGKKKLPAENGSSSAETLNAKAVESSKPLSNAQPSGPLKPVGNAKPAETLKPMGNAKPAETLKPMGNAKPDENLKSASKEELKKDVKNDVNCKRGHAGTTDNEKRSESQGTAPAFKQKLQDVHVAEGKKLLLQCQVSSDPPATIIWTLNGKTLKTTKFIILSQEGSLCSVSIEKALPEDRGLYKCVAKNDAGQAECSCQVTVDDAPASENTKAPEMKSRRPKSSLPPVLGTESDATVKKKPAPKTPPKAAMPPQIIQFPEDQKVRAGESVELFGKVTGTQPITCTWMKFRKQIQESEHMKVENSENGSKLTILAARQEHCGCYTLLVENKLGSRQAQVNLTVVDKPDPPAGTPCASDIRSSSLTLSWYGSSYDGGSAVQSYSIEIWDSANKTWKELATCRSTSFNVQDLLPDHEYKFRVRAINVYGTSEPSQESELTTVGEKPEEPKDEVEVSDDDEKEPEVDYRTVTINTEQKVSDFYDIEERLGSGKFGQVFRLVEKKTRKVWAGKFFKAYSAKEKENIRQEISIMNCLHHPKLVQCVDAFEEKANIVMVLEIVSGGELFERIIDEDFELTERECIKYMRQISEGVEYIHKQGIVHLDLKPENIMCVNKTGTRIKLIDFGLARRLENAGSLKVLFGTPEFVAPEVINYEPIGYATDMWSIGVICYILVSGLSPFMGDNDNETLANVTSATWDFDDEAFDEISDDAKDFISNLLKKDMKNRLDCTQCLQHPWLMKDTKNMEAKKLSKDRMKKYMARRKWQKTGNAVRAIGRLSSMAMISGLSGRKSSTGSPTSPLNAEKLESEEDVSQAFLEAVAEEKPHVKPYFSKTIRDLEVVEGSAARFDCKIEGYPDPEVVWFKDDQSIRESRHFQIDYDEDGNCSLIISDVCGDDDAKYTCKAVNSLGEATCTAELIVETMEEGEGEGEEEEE
JNK3, sequence (P53779 whole entry, species assumed): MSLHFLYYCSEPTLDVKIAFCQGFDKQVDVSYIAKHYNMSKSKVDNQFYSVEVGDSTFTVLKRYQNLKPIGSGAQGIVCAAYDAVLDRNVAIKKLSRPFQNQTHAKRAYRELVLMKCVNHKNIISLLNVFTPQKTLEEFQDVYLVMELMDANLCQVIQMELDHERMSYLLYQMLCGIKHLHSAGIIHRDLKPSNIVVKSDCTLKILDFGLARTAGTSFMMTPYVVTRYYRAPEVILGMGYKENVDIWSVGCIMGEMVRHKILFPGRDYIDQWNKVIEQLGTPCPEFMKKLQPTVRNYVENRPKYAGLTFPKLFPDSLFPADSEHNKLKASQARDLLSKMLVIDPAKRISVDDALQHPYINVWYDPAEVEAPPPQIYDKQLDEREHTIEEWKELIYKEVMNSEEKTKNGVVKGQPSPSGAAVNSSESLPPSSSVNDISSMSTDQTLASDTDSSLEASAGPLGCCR
TrkA, sequence (P04629 33-796, species assumed): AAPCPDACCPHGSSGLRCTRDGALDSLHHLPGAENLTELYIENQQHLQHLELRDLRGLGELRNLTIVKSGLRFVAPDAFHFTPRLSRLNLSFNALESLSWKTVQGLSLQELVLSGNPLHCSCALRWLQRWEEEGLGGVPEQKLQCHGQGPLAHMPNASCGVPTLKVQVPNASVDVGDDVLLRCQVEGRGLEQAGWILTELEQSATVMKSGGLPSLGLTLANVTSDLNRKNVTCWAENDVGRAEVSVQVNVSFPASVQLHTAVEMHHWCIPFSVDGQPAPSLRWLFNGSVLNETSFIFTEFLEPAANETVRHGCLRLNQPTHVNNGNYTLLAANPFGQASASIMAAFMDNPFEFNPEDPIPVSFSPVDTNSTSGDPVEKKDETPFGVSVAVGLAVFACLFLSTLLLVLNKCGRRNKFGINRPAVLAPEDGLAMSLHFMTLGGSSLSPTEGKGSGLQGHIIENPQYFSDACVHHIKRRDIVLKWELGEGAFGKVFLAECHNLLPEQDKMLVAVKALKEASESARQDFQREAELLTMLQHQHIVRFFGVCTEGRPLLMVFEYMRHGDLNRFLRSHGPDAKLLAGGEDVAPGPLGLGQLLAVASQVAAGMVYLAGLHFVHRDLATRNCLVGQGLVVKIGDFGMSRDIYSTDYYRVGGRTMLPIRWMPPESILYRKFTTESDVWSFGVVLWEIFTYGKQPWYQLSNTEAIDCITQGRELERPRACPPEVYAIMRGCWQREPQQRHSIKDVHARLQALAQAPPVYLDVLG
Src, sequence (P12931 whole entry, species assumed): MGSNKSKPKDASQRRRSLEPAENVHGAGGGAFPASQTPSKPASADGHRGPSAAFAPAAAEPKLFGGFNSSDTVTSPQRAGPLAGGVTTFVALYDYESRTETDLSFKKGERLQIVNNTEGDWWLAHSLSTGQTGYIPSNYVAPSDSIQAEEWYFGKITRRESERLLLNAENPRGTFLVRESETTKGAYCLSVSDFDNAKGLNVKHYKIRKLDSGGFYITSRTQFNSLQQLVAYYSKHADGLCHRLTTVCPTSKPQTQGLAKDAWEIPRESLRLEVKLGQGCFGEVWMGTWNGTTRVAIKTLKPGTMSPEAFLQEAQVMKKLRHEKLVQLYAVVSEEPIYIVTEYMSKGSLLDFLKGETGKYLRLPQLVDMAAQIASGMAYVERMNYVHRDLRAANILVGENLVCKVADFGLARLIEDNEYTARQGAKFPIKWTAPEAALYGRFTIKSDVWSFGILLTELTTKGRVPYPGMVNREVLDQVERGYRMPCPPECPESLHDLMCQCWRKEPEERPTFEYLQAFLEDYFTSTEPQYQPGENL
S6K1, sequence (P23443 whole entry, species assumed): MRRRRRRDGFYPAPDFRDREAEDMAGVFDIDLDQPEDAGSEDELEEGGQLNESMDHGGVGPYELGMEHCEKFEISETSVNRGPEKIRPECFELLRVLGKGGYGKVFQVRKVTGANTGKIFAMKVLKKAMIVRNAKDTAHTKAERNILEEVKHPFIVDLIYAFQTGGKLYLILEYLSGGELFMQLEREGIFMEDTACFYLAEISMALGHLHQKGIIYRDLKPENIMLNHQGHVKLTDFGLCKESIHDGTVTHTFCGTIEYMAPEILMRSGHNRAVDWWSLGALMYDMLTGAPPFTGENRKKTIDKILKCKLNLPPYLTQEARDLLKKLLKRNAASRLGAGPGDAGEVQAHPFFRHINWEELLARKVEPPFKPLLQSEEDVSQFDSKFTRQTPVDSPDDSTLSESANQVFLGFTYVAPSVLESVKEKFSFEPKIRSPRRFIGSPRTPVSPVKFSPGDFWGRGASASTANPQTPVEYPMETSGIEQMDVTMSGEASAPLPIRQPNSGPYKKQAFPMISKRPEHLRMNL

CC(=O)Nc1cccc(NC(=O)c2nc3ccc(O)cc3s2)c1 [Compound 03-07, N-(3-acetamidophenyl)-6-hydroxybenzo[d]thiazole-2-carboxamide]
remaining activity at 100 µM [1, 12]: 50% | remaining activity at 100 µM [2, 12]: 93% | remaining activity at 100 µM [3, 12]: 81% | remaining activity at 100 µM [4, 12]: 26% | remaining activity at 100 µM [5, 12]: 21% | remaining activity at 100 µM [6, 12]: 46% | remaining activity at 100 µM [7, 12]: 74% | remaining activity at 100 µM [8, 12]: 28% | remaining activity at 100 µM [9, 12]: 101% | remaining activity at 100 µM [10, 12]: 59% | residual kinase activity, VEG-FR [11, 12]: 28

O=C(Nc1nc2cc(O)ccc2s1)c1ccncc1 [Compound 03-11]
residual kinase activity, JNK3 [1, 13]: 77 | residual kinase activity, p38g MAPK [2, 13]: 93 | residual kinase activity, p38d MAPK [3, 13]: 82 | residual kinase activity, S6K1 [4, 13]: 83 | residual kinase activity, SmMLCK [5, 13]: 63 | residual kinase activity, HIPK2 [6, 13]: 67 | residual kinase activity, IRAK4 [7, 13]: 69 | residual kinase activity, TTK [8, 13]: 74 | residual kinase activity, Src [9, 13]: 79 | residual kinase activity, TrkA [10, 13]: 87 | residual kinase activity, VEG-FR [11, 13]: 58

O=C(Nc1nc2ccc(O)cc2s1)c1ccccn1 [Compound 03-12]
residual kinase activity, JNK3 [1, 13]: 70 | residual kinase activity, p38g MAPK [2, 13]: 89 | residual kinase activity, p38d MAPK [3, 13]: 77 | residual kinase activity, S6K1 [4, 13]: 50 | residual kinase activity, SmMLCK [5, 13]: 9 | residual kinase activity, HIPK2 [6, 13]: 18 | residual kinase activity, IRAK4 [7, 13]: 54 | residual kinase activity, TTK [8, 13]: 36 | residual kinase activity, Src [9, 13]: 105 | residual kinase activity, TrkA [10, 13]: 49 | residual kinase activity, VEG-FR [11, 13]: 17

O=C(Nc1nc2cc(O)ccc2s1)c1ccccn1 [Compound 03-13]
residual kinase activity, JNK3 [1, 13]: 67 | residual kinase activity, p38g MAPK [2, 13]: 94 | residual kinase activity, p38d MAPK [3, 13]: 99 | residual kinase activity, S6K1 [4, 13]: 71 | residual kinase activity, SmMLCK [5, 13]: 37 | residual kinase activity, HIPK2 [6, 13]: 43 | residual kinase activity, IRAK4 [7, 13]: 55 | residual kinase activity, TTK [8, 13]: 53 | residual kinase activity, Src [9, 13]: 70 | residual kinase activity, TrkA [10, 13]: 57 | residual kinase activity, VEG-FR [11, 13]: 24

COc1ccc2sc(NC(C)=O)nc2c1 [Compound 03-21]
remaining activity at 100 µM [1, 13]: 80% | remaining activity at 100 µM [2, 13]: 56% | remaining activity at 100 µM [3, 13]: 75% | remaining activity at 100 µM [4, 13]: 63% | remaining activity at 100 µM [5, 13]: 50% | remaining activity at 100 µM [6, 13]: 25% | remaining activity at 100 µM [7, 13]: 52% | remaining activity at 100 µM [8, 13]: 67% | remaining activity at 100 µM [9, 13]: 86% | remaining activity at 100 µM [10, 13]: 78% | residual kinase activity, VEG-FR [11, 13]: 71

CC(=O)Nc1nc2ccccc2s1 [Compound 03-32]
residual kinase activity, JNK3 [1, 13]: 66 | residual kinase activity, p38g MAPK [2, 13]: 109 | residual kinase activity, p38d MAPK [3, 13]: 80 | residual kinase activity, S6K1 [4, 13]: 92 | residual kinase activity, SmMLCK [5, 13]: 81 | residual kinase activity, HIPK2 [6, 13]: 51 | residual kinase activity, IRAK4 [7, 13]: 65 | residual kinase activity, TTK [8, 13]: 71 | residual kinase activity, Src [9, 13]: 113 | residual kinase activity, TrkA [10, 13]: 77 | residual kinase activity, VEG-FR [11, 13]: 66

O=C(Nc1nc2cc(O)ccc2s1)c1cccnc1 [Compound 03-33]
residual kinase activity, JNK3 [1, 13]: 76 | residual kinase activity, p38g MAPK [2, 13]: 85 | residual kinase activity, p38d MAPK [3, 13]: 103 | residual kinase activity, S6K1 [4, 13]: 75 | residual kinase activity, SmMLCK [5, 13]: 52 | residual kinase activity, HIPK2 [6, 13]: 52 | residual kinase activity, IRAK4 [7, 13]: 42 | residual kinase activity, TTK [8, 13]: 45 | residual kinase activity, Src [9, 13]: 75 | residual kinase activity, TrkA [10, 13]: 51 | residual kinase activity, VEG-FR [11, 13]: 50
